Laboratory results reported in PubChem BioAssay (NCI).
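Five concentrations, 48 hours, 96-well plates. The concentration for full growth arrest is given as TGI.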

Legend:
Experiment in all cases: NCI anticancer screen, dose series, 48 h
NCI-H522 lung = tested on: NCI-H522 lung
HOP-62 NSCLC = tested on: HOP-62 NSCLC
KM12 colon = tested on: KM12 colon
A549 NSCLC = tested on: A549 NSCLC
K-562 leukemia = tested on: K-562 leukemia
OVCAR-3 ovarian = tested on: OVCAR-3 ovarian
SK-MEL-5 melanoma = tested on: SK-MEL-5 melanoma
NCI-H226 lung = tested on: NCI-H226 lung
SNB-75 CNS = tested on: SNB-75 CNS
M14 melanoma = tested on: M14 melanoma
HL-60(TB) leukemia = tested on: HL-60(TB) leukemia
SN12C renal = tested on: SN12C renal
SF-295 CNS = tested on: SF-295 CNS
SF-539 CNS = tested on: SF-539 CNS
OVCAR-5 ovarian = tested on: OVCAR-5 ovarian
NCI-H460 lung = tested on: NCI-H460 lung
CCRF-CEM leukemia = tested on: CCRF-CEM leukemia
RPMI-8226 leukemia = tested on: RPMI-8226 leukemia
786-0 renal = tested on: 786-0 renal
LOX IMVI melanoma = tested on: LOX IMVI melanoma
SNB-78 CNS = tested on: SNB-78 CNS
OVCAR-8 ovarian = tested on: OVCAR-8 ovarian
IGROV1 ovarian = tested on: IGROV1 ovarian
CAKI-1 renal = tested on: CAKI-1 renal
M19-MEL melanoma = tested on: M19-MEL melanoma
LXFL 529 NSCLC = tested on: LXFL 529 NSCLC
OVCAR-4 ovarian = tested on: OVCAR-4 ovarian
SW-620 colon = tested on: SW-620 colon
DLD-1 colon = tested on: DLD-1 colon
NCI-H23 lung = tested on: NCI-H23 lung
HT29 colon = tested on: HT29 colon
SK-OV-3 ovarian = tested on: SK-OV-3 ovarian
HCT-15 colon = tested on: HCT-15 colon
HCT-116 colon = tested on: HCT-116 colon
ACHN renal = tested on: ACHN renal
COLO 205 colon = tested on: COLO 205 colon
HOP-92 NSCLC = tested on: HOP-92 NSCLC
DMS 114 small cell lung = tested on: DMS 114 small cell lung
SR leukemia = tested on: SR leukemia
UACC-62 melanoma = tested on: UACC-62 melanoma
EKVX NSCLC = tested on: EKVX NSCLC
U251 CNS = tested on: U251 CNS
MOLT-4 leukemia = tested on: MOLT-4 leukemia
SF-268 CNS = tested on: SF-268 CNS
RXF 393 renal = tested on: RXF 393 renal
UO-31 renal = tested on: UO-31 renal
SK-MEL-28 melanoma = tested on: SK-MEL-28 melanoma
SK-MEL-2 melanoma = tested on: SK-MEL-2 melanoma
DMS 273 small cell lung = tested on: DMS 273 small cell lung
KM20L2 colon = tested on: KM20L2 colon
HOP-18 NSCLC = tested on: HOP-18 NSCLC
UACC-257 melanoma = tested on: UACC-257 melanoma
MALME-3M melanoma = tested on: MALME-3M melanoma
TK-10 renal = tested on: TK-10 renal
A498 renal = tested on: A498 renal
SNB-19 CNS = tested on: SNB-19 CNS
HCC-2998 colon = tested on: HCC-2998 colon

CC(C)(c1cn(Cc2ccccc2)c2ccccc12)c1cn(Cc2ccccc2)c2ccccc12
TGI (NCI-H522 lung): > 100 µM | TGI (HOP-62 NSCLC): > 100 µM | TGI (KM12 colon): > 100 µM | TGI (A549 NSCLC): > 100 µM | TGI (K-562 leukemia): > 100 µM | TGI (OVCAR-3 ovarian): > 100 µM | TGI (SK-MEL-5 melanoma): > 100 µM | TGI (NCI-H226 lung): > 100 µM | TGI (SNB-75 CNS): 99.6 µM | TGI (M14 melanoma): > 100 µM | TGI (HL-60(TB) leukemia): > 100 µM | TGI (SN12C renal): 5.07 µM | TGI (SF-295 CNS): > 100 µM | TGI (SF-539 CNS): > 100 µM | TGI (OVCAR-5 ovarian): > 100 µM | TGI (NCI-H460 lung): > 100 µM | TGI (CCRF-CEM leukemia): > 100 µM | TGI (RPMI-8226 leukemia): > 100 µM | TGI (786-0 renal): > 100 µM | TGI (LOX IMVI melanoma): > 100 µM | TGI (SNB-78 CNS): > 100 µM | TGI (OVCAR-8 ovarian): > 100 µM | TGI (IGROV1 ovarian): > 100 µM | TGI (CAKI-1 renal): > 100 µM | TGI (M19-MEL melanoma): > 100 µM | TGI (LXFL 529 NSCLC): > 100 µM | TGI (OVCAR-4 ovarian): > 100 µM | TGI (SW-620 colon): > 100 µM | TGI (DLD-1 colon): > 100 µM | TGI (NCI-H23 lung): > 100 µM | TGI (HT29 colon): > 100 µM | TGI (SK-OV-3 ovarian): > 100 µM | TGI (HCT-15 colon): > 100 µM | TGI (HCT-116 colon): > 100 µM | TGI (ACHN renal): > 100 µM | TGI (COLO 205 colon): > 100 µM | TGI (HOP-92 NSCLC): > 100 µM | TGI (DMS 114 small cell lung): > 100 µM | TGI (SR leukemia): > 100 µM | TGI (UACC-62 melanoma): > 100 µM | TGI (EKVX NSCLC): > 100 µM | TGI (U251 CNS): > 100 µM | TGI (MOLT-4 leukemia): > 100 µM | TGI (SF-268 CNS): > 100 µM

Cc1ccccc1NC(=O)c1cc2cc(N=Nc3ccccc3C(=O)O)ccc2oc1=O
TGI (NCI-H522 lung): 29.5 µM | TGI (RXF 393 renal): 33.9 µM | TGI (HOP-62 NSCLC): 43.3 µM | TGI (KM12 colon): 27.8 µM | TGI (A549 NSCLC): > 100 µM | TGI (K-562 leukemia): 79.5 µM | TGI (OVCAR-3 ovarian): > 100 µM | TGI (SK-MEL-5 melanoma): 30.7 µM | TGI (UO-31 renal): 50.6 µM | TGI (SK-MEL-28 melanoma): 41.2 µM | TGI (NCI-H226 lung): 44 µM | TGI (SNB-75 CNS): 35.6 µM | TGI (M14 melanoma): 37.7 µM | TGI (HL-60(TB) leukemia): 55.6 µM | TGI (SN12C renal): 53.3 µM | TGI (SF-295 CNS): 39.2 µM | TGI (SK-MEL-2 melanoma): 47.7 µM | TGI (SF-539 CNS): 37.5 µM | TGI (NCI-H460 lung): 60 µM | TGI (CCRF-CEM leukemia): 80.4 µM | TGI (RPMI-8226 leukemia): 60.2 µM | TGI (786-0 renal): 69.6 µM | TGI (LOX IMVI melanoma): 41.6 µM | TGI (DMS 273 small cell lung): 42.5 µM | TGI (KM20L2 colon): 32.1 µM | TGI (OVCAR-8 ovarian): > 100 µM | TGI (IGROV1 ovarian): 65.2 µM | TGI (HOP-18 NSCLC): 35.1 µM | TGI (M19-MEL melanoma): 27.3 µM | TGI (UACC-257 melanoma): 24.1 µM | TGI (SW-620 colon): > 100 µM | TGI (MALME-3M melanoma): 25 µM | TGI (DLD-1 colon): 54.3 µM | TGI (NCI-H23 lung): 12.2 µM | TGI (HT29 colon): 38.3 µM | TGI (SK-OV-3 ovarian): 68.7 µM | TGI (HCT-15 colon): 36.7 µM | TGI (HCT-116 colon): 57.9 µM | TGI (ACHN renal): > 100 µM | TGI (COLO 205 colon): 27.8 µM | TGI (DMS 114 small cell lung): 41.2 µM | TGI (UACC-62 melanoma): 17.9 µM | TGI (TK-10 renal): > 100 µM | TGI (EKVX NSCLC): > 100 µM | TGI (U251 CNS): 51.5 µM | TGI (MOLT-4 leukemia): 83.5 µM

Nc1nc[n+](Cc2ccccc2)c2ncn(Cc3ccccc3)c12
TGI (NCI-H522 lung): > 100 µM | TGI (RXF 393 renal): 71 µM | TGI (HOP-62 NSCLC): > 100 µM | TGI (KM12 colon): > 100 µM | TGI (A549 NSCLC): > 100 µM | TGI (K-562 leukemia): > 100 µM | TGI (OVCAR-3 ovarian): > 100 µM | TGI (SK-MEL-5 melanoma): > 100 µM | TGI (UO-31 renal): > 100 µM | TGI (SK-MEL-28 melanoma): > 100 µM | TGI (NCI-H226 lung): > 100 µM | TGI (SNB-75 CNS): > 100 µM | TGI (M14 melanoma): 86.3 µM | TGI (HL-60(TB) leukemia): > 100 µM | TGI (SN12C renal): > 100 µM | TGI (SF-295 CNS): > 100 µM | TGI (SK-MEL-2 melanoma): > 100 µM | TGI (SF-539 CNS): > 100 µM | TGI (OVCAR-5 ovarian): > 100 µM | TGI (NCI-H460 lung): > 100 µM | TGI (CCRF-CEM leukemia): > 100 µM | TGI (786-0 renal): > 100 µM | TGI (LOX IMVI melanoma): > 100 µM | TGI (DMS 273 small cell lung): > 100 µM | TGI (A498 renal): > 100 µM | TGI (SNB-78 CNS): > 100 µM | TGI (KM20L2 colon): > 100 µM | TGI (OVCAR-8 ovarian): > 100 µM | TGI (IGROV1 ovarian): > 100 µM | TGI (CAKI-1 renal): > 100 µM | TGI (HOP-18 NSCLC): > 100 µM | TGI (M19-MEL melanoma): > 100 µM | TGI (LXFL 529 NSCLC): > 100 µM | TGI (OVCAR-4 ovarian): > 100 µM | TGI (UACC-257 melanoma): > 100 µM | TGI (SW-620 colon): > 100 µM | TGI (MALME-3M melanoma): > 100 µM | TGI (DLD-1 colon): > 100 µM | TGI (NCI-H23 lung): > 100 µM | TGI (HT29 colon): > 100 µM | TGI (SK-OV-3 ovarian): > 100 µM | TGI (SNB-19 CNS): > 100 µM | TGI (HCT-15 colon): > 100 µM | TGI (HCT-116 colon): > 100 µM | TGI (ACHN renal): > 100 µM | TGI (COLO 205 colon): 82.8 µM | TGI (HOP-92 NSCLC): 96.6 µM | TGI (SR leukemia): > 100 µM | TGI (UACC-62 melanoma): > 100 µM | TGI (TK-10 renal): > 100 µM | TGI (EKVX NSCLC): > 100 µM | TGI (HCC-2998 colon): 60.4 µM | TGI (U251 CNS): > 100 µM | TGI (SF-268 CNS): > 100 µM
